Marks after values point to notes of the source that are not given here.
Columns and labels:
C57BL/6J mice [1] = assay: GLP1R-GLP2R dual agonist compound study: oral glucose tolerance test; assay type: in vivo
Method: On day 7, an oral glucose tolerance test (OGTT) was performed. Animals were mildly fasted as all food was removed 4 hours prior to the oral glucose load. Vehicle (SC) and compounds were administered subcutaneously (SC) 2 hours prior to the OGTT. At t=0 mice received an oral glucose load (2 g/kg; 4 ml/kg; 500 mg/ml, Fresenius Kabi, Sweden). Glucose was given as gavage via a gastrically-placed tube connected to a syringe ensuring accurate dosing. Blood glucose was measured from tail vein blood before glucose (at t=−120 and 0 min, baseline) and after glucose administration at t=15, 30, 60 and 120 min. Blood samples (tail vein) was collected into 10 μl heparinized glass capillary tubes and immediately suspended in buffer (0.5 ml of glucose/lactate system solution (EKF-diagnostics, Germany) and analyzed for glucose on the test day using a BIOSEN c-Line glucose meter (EKF-diagnostics, Germany) according to manufacturer's instructions. Results from the OGTT are listed below in Table 11.

C57BL/6J mice [2] = assay: GLP1R-GLP2R dual agonist compound study: gut wet weight; assay type: in vivo
Excerpt: On study day 8, the mice were terminated and the GI tract was removed for determination of the gut wet weight. The gut wet weight results are listed below in Table 12.

[3] = test system: diabetic db/db (BKS.Cg-m+/+Leprdb/J) male mice; assay: Intestinal volume and surface area (stereology) in diabetic db/db mice; assay type: in vivo; settings: for Large intestine surface area / Large intestine volume / Small intestine surface area / Small intestine volume: Day 58, mean ± S.E.M.
Method: A total of forty-six (46) diabetic db/db (BKS.Cg-m+/+Leprdb/J) male mice, 5 weeks old at arrival, was obtained from Janvier (France). […] They were housed in groups of n=2 in a light-, temperature-, and humidity-controlled room (12-hour light: 12-hour dark cycle, lights On/Off at 04.00/16.00 h; 22±1° C.; 50±10% relative humidity). During the habituation period animals was accustomed to the experimental paradigm.
Baseline, free fed blood glucose samples were obtained bi-weekly prior to study start (blood was collected from the tail vein) in order to screen for the diabetic state. The 40 animals closest to the mean BG/BW value at day −3 were randomized into 4 groups (n=10/group; the remaining 6 animals was be discarded from the main study): Group 1: Vehicle, BID, SC. […] During day 0-58 of the experiment, animals received a subcutaneous dosing twice daily at 06.00-08.00 hours and again between 02.00-04.00 hours. Dose volume was 5 ml/kg.
At the end of the study period mice were terminated by decapitation under isoflurane anaesthesia. The entire intestine was dissected out and divided into small and large which was then measured in length.

GLP-2R = biological target: T1, GLP-2R (Homo sapiens, UniProt O95838); assay: GLP2 receptor efficacy assay (in vitro functional screen, Euroscreen or DiscoveRx); settings: Table 1
T1 sequence (O95838 1-553): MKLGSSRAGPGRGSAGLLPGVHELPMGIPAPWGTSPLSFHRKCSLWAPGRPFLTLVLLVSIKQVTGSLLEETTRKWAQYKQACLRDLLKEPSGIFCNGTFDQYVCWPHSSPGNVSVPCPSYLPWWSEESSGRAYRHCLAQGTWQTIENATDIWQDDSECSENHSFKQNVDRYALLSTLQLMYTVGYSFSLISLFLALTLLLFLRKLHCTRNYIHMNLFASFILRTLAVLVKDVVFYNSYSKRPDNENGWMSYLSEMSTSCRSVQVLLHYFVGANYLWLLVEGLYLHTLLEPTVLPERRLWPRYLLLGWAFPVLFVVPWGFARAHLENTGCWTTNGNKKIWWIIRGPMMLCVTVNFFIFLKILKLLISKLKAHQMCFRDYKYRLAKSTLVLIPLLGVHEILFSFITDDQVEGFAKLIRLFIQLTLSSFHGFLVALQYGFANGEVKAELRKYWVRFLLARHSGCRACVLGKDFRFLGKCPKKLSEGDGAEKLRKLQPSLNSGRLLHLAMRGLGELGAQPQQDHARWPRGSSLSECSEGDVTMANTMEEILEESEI

R^1-HGDGSFTSELSTYLDALAARDFIAWLIQTKITDR^2 [SEQ ID NO 6]
Oral glucose tolerance test AUC, 0-120 min (C57BL/6J mice [1]; Day 7, 3.0 mg/kg BID SC, glucose 2 g/kg oral, mean ± S.E.M.): 523 ± 112 mmol·min/L
blood glucose compared to vehicle and teduglutide (C57BL/6J mice [1]; dosed twice daily for 7 days): significantly reduced fasting blood glucose
Gut wet weight (C57BL/6J mice [2]; Day 8, 3.0 mg/kg BID SC, mean ± S.E.M.): 3.8 ± 0.3 g
gut wet weight compared to vehicle and teduglutide (C57BL/6J mice [2]; dosed twice daily for 8 days): significantly increased the gut wet weight
effect on small intestine volume and surface area ([3]; 8 weeks of treatment, 50 and 250 nmol/kg): marked increase in small intestine volume as well as surface area
Large intestine surface area ([3]; 50 nmol/kg BID SC): 3.6 ± 1.2 cm^2
Large intestine volume ([3]; 50 nmol/kg BID SC): 274.2 ± 7.0 mm^3
Small intestine surface area ([3]; 50 nmol/kg BID SC): 348.9 ± 10.8*** cm^2
Small intestine volume ([3]; 50 nmol/kg BID SC): 2097 ± 72.7*** mm^3
Large intestine surface area ([3]; 250 nmol/kg BID SC): 18.6 ± 1.9 cm^2
Large intestine volume ([3]; 250 nmol/kg BID SC): 288.2 ± 23.7 mm^3
Small intestine surface area ([3]; 250 nmol/kg BID SC): 344.0 ± 20.8*** cm^2
Small intestine volume ([3]; 250 nmol/kg BID SC): 2043 ± 62.3*** mm^3
ranking of GLP-2 receptor potency (GLP-2R): most potent GLP-2 receptor agonist

Source: patent US20180280480A1, “COMPOSITIONS AND PEPTIDES HAVING DUAL GLP-1R AND GLP-2R AGONIST ACTIVITY” (priority 2014, published 2018)
